{"source": "patent US20260308158A1", "about": "“TARGETING RNAS ASSOCIATED WITH TAUOPATHIES WITH SMALL MOLECULES” (University of Florida Research Foundation, Incorporated, priority 2023, published 2026)", "key": {"[1]": {"test_system": "dually labeled DDPAC MAPT SRE RNA / U1 snRNA mimic", "test": "U1 snRNA mimic FRET-based quenching assay", "format": "biochemical", "protocol": "U1 snRNA Mimic Quenching Assay. A 200 nM aliquot of dually labeled model of the DDPAC RNA (5′-FAM-[…]-BHQ-1-3′ (SEQ ID NO: 5); where FAM is 5 (6)-Carboxyfluorescein and BHQ-1 is black hole quencher) was folded in 1× Assay Buffer as described in Fluorescent Binding Affinity Measurements. Compound of interest at the indicated concentration was added, and the samples were incubated at room temperature in the dark for 15 min. A U1 snRNA mimic with sequence 5′-[…]-3′ (SEQ ID NO: 6) was then added to the samples to a final concentration of 20 μM. The fluorescence intensity of FAM was measured as a function of time for 1 h using a […] plate reader, with excitation and emission wavelengths of 485 and 525 nm, respectively."}, "[2]": {"test_system": "4R and 3R tau protein in LAN5 cells", "test": "4R/3R tau protein by Western blotting in LAN5 cells", "format": "cell-based", "conditions": "LA-N-5; 2 at 1.5 μM, LAN5, 48 h; read-out: reduction of 4R/3R protein ratio", "protocol": "Western Blotting. LAN5 cells were seeded in 6-well plates at 0.6×10^6 cells per well, treated with compound and incubated for 48 h. After removing the growth medium, the cells were washed with 1×DPBS and harvested by trypsinization. Total protein was extracted with Mammalian Protein Extraction Reagent (M-PER, Thermo Scientific) per the manufacturer's protocol. Protein concentrations were determined using a Pierce Micro BCA Protein Assay Kit per the manufacturer's recommended protocol. Approximately 20 μg of total protein from each biological sample was separated on a sodium dodecyl sulfate (SDS)-polyacrylamide gel (5% (w/v) polyacrylamide stacking layer; 12% (w/v) polyacrylamide separating layer), followed by transferring to a polyvinylidene fluoride (PVDF; 0.45 μm) membrane. […] After three more washes with 1×TBST for 15 min each, 4R, 3R tau protein, or B-actin were detected using SuperSignal West Pico Chemiluminescent Substrate (Pierce Biotechnology).\nAfter imaging, the membrane was stripped with 1× Stripping Buffer (200 mM glycine with 0.1% SDS, pH 2.2) for 0.5 h at room temperature, and β-actin levels were detected as described above, except using a β-actin primary antibody (Cell Signaling Technology, 4970S; 1:5000 dilution). ImageJ software was used for the quantification of the protein bands."}, "[3]": {"test_system": "WT I17T MAPT exon 10 mini-gene luciferase reporter", "test": "Luciferase reporter assay, WT I17T mutant mini-gene in HeLa cells", "format": "cell-based", "conditions": "Homo sapiens, 48 h, 5 μM (highest dose), read-out: reduction of luciferase activity", "protocol": "Luciferase-reporter Assay to Study Exon 10 Alternative Splicing. The exon 10 mini-genes, both WT and DDPAC and mutant thereof, fused to firefly luciferase, have been previously described.^18 HeLa cells were seeded in 60 mm diameter dishes and incubated for 12-16 h to 70% confluency. They were then transfected with WT, WT+I17T, DDPAC, or DDPAC+I17T luciferase reporter minigenes using JetPrime (Polyplus Transfection) per the manufacturer's recommended protocol and incubated for 4 h. After transfection, the cells were collected by trypsinization and re-seeded in 96-well plates at 0.2×10^5 cells per well, followed by treatment of compounds after 4 h. Compound stocks prepared in DMSO were diluted in growth medium and added to cells with final DMSO concentration at 0.1% (v/v). After a 48 h treatment period, the cells were washed with 1× DPBS. Each well was added with a mixture of 10 μL WST-1 reagent and 90 μL of growth medium. After incubation at 37° C. for 45 min, absorbance was measured at 450 and 690 nm. A690 as background was subtracted from A450 to obtain A450′. […] The plate was incubated at room temperature for 20 min and the luminescence was measured with a […] plate reader (1000 ms integration time). The resulted luminescence was normalized to A450′."}}}
{"smiles": "COc1cc(N)ncc1CCCN(C)CCCn1cnc2c3ccccc3n(C)c2c1=O", "note": "[Compound 2, 3-(3-((3-(6-amino-4-methoxypyridin-3-yl)propyl)(methyl)amino)propyl)-5-methyl-3,5-dihydro-4H-pyrimido[5,4-b]indol-4-one]", "values": [{"measurement": "more potent than 1 in multiple biochemical assays", "setting": "[1]; 2 vs 1, multiple biochemical assays", "result": "at least 6 fold"}, {"measurement": "rate of increase of FAM signal (unfolding by U1 snRNA mimic)", "setting": "[1]; compound 10 μM, vehicle 0.49 min-1", "result": 0.37, "unit": "min⁻¹"}, {"measurement": "lower IC50 compared with 1", "setting": "[1]; end-point FRET assay (FIG. 15C), 2 vs 1", "result": "around 5 fold"}, {"measurement": "IC50", "setting": "[1]; end-point measurement (5 min), read-out: IC50, reduction in FAM fluorescence (U1 snRNA mimic binding)", "result": "900 ± 200", "unit": "nM"}, {"measurement": "inhibition at 1.5 µM", "setting": "[2]", "result": "54 ± 9", "unit": "%"}, {"measurement": "inhibition at 5 µM", "setting": "[3]", "result": "~15", "unit": "%"}]}
